Assay results published in the NIST ThermoML archive (doi:10.1016/j.jct.2017.11.017).

Key:
[1] = 101.33 kPa, Liquid, Vibrating tube method
[2] = activity coefficient (dimensionless); of the first substance listed, at infinite dilution; xn = mol fraction of the nth substance listed; settings: 101.33 kPa, Liquid, Chromatography, x1 = 0

C[n+]1ccn(CCCO)c1.N#CN=C=[N-] [1-(3-hydroxypropyl)-3-methylimidazolium dicyanamide]
[1]
Settings	mass density [kg/m3]
298.15 K	1171
303.15 K	1167.8
308.15 K	1164.6
313.15 K	1161.4
318.15 K	1158.2
323.15 K	1155.1
328.15 K	1152
333.15 K	1148.9
338.15 K	1145.8
343.15 K	1142.7
348.15 K	1139.6
353.15 K	1136.6
358.15 K	1133.6
363.15 K	1130.6
368.15 K	1127.6

COC(C)=O [methyl ethanoate] + C[n+]1ccn(CCCO)c1.N#CN=C=[N-]
[2]
Settings	activity coefficient
318.15 K	3.07
328.15 K	3.21
338.15 K	3.35
348.15 K	3.5
358.15 K	3.64
368.15 K	3.8

C1CCCCCCC1 [cyclooctane] + C[n+]1ccn(CCCO)c1.N#CN=C=[N-]
[2]
Settings	activity coefficient
298.15 K	216
308.15 K	198
318.15 K	181
328.15 K	165
338.15 K	153
348.15 K	143
358.15 K	137

C=COC(C)=O [vinyl acetate] + C[N+]1(CCCO)CCOCC1.N#C[N-]C#N
[2]
Settings	activity coefficient
318.15 K	6.62
328.15 K	6.72
338.15 K	6.81
348.15 K	6.89
358.15 K	6.99
368.15 K	7.08

CCC(C)O (stereo not given) [butan-2-ol] + C[n+]1ccn(CCCO)c1.N#CN=C=[N-]
[2]
Settings	activity coefficient
318.15 K	2.74
328.15 K	2.72
338.15 K	2.72
348.15 K	2.72
358.15 K	2.7
368.15 K	2.71

C=CCCCCCCCC [1-decene] + C[n+]1ccn(CCCO)c1.N#CN=C=[N-]
[2]
Settings	activity coefficient
298.15 K	879
308.15 K	819
318.15 K	764
328.15 K	710
338.15 K	662
348.15 K	627
358.15 K	590

CCCCCCCCC [nonane] + C[N+]1(CCCO)CCOCC1.N#C[N-]C#N
[2]
Settings	activity coefficient
308.15 K	2260
318.15 K	1870
328.15 K	1570
338.15 K	1340
348.15 K	1160
358.15 K	994
368.15 K	867

CC(C)c1ccccc1 [isopropylbenzene] + C[N+]1(CCCO)CCOCC1.N#C[N-]C#N
[2]
Settings	activity coefficient
318.15 K	52.5
328.15 K	51.2
338.15 K	50.3
348.15 K	49.2
358.15 K	48.4
368.15 K	47.5

C1CCCCCC1 [cycloheptane] + C[N+]1(CCCO)CCOCC1.N#C[N-]C#N
[2]
Settings	activity coefficient
308.15 K	391
318.15 K	341
328.15 K	297
338.15 K	260
348.15 K	230
358.15 K	206
368.15 K	185

CCCCCO [pentan-1-ol] + C[n+]1ccn(CCCO)c1.N#CN=C=[N-]
[2]
Settings	activity coefficient
318.15 K	4.16
328.15 K	4.14
338.15 K	4.1
348.15 K	4.06
358.15 K	4.08
368.15 K	4.05

C=CCCCC [hex-1-ene] + C[n+]1ccn(CCCO)c1.N#CN=C=[N-]
[2]
Settings	activity coefficient
298.15 K	123
308.15 K	116
318.15 K	109
328.15 K	102
338.15 K	97.5
348.15 K	92.5
358.15 K	89

Cc1ccccc1 [toluene] + C[N+]1(CCCO)CCOCC1.N#C[N-]C#N
[2]
Settings	activity coefficient
318.15 K	13
328.15 K	13.1
338.15 K	13.3
348.15 K	13.4
358.15 K	13.6
368.15 K	13.7

CCOCC [diethyl ether] + C[N+]1(CCCO)CCOCC1.N#C[N-]C#N
[2]
Settings	activity coefficient
298.15 K	59.3
308.15 K	51.3
318.15 K	44.7
328.15 K	39.2
338.15 K	35

C1CCCCC1 [cyclohexane] + C[n+]1ccn(CCCO)c1.N#CN=C=[N-]
[2]
Settings	activity coefficient
298.15 K	115
308.15 K	105
318.15 K	97.9
328.15 K	91.1
338.15 K	85.5
348.15 K	80.4
358.15 K	76.6

C[N+]1(CCCO)CCOCC1.N#C[N-]C#N [4-(3-hydroxypropyl)-4-methylmorpholinium dicyanamide]
[1]
Settings	mass density [kg/m3]
298.15 K	1175.4
303.15 K	1172.4
308.15 K	1169.4
313.15 K	1166.5
318.15 K	1163.6
323.15 K	1160.7
328.15 K	1157.9
333.15 K	1155
338.15 K	1152.1
343.15 K	1149.3
348.15 K	1146.5
353.15 K	1143.7
358.15 K	1141
363.15 K	1138.2
368.15 K	1135.5

CCCO [propan-1-ol] + C[n+]1ccn(CCCO)c1.N#CN=C=[N-]
[2]
Settings	activity coefficient
318.15 K	1.77
328.15 K	1.76
338.15 K	1.76
348.15 K	1.76
358.15 K	1.77
368.15 K	1.78

CC(C)O [propan-2-ol] + C[N+]1(CCCO)CCOCC1.N#C[N-]C#N
[2]
Settings	activity coefficient
318.15 K	2.85
328.15 K	2.78
338.15 K	2.72
348.15 K	2.67
358.15 K	2.64
368.15 K	2.6

CCC(C)O (stereo not given) [butan-2-ol] + C[N+]1(CCCO)CCOCC1.N#C[N-]C#N
[2]
Settings	activity coefficient
318.15 K	4.46
328.15 K	4.35
338.15 K	4.27
348.15 K	4.2
358.15 K	4.15
368.15 K	4.09

CC(C)(C)O [2-methylpropan-2-ol] + C[N+]1(CCCO)CCOCC1.N#C[N-]C#N
[2]
Settings	activity coefficient
318.15 K	4.35
328.15 K	4.27
338.15 K	4.21
348.15 K	4.17
358.15 K	4.14
368.15 K	4.09

Cc1cccc(C)c1 [1,3-dimethylbenzene] + C[N+]1(CCCO)CCOCC1.N#C[N-]C#N
[2]
Settings	activity coefficient
318.15 K	24.1
328.15 K	24.1
338.15 K	24.2
348.15 K	24.3
358.15 K	24.3
368.15 K	24.5

C=CCCCCC [1-heptene] + C[N+]1(CCCO)CCOCC1.N#C[N-]C#N
[2]
Settings	activity coefficient
298.15 K	793
308.15 K	634
318.15 K	519
328.15 K	425
338.15 K	359

CCCC=O [butanal] + C[n+]1ccn(CCCO)c1.N#CN=C=[N-]
[2]
Settings	activity coefficient
318.15 K	2.68
328.15 K	2.92
338.15 K	3.19
348.15 K	3.43
358.15 K	3.72
368.15 K	3.95

C=COC(C)=O [vinyl acetate] + C[n+]1ccn(CCCO)c1.N#CN=C=[N-]
[2]
Settings	activity coefficient
318.15 K	4.73
328.15 K	4.92
338.15 K	5.12
348.15 K	5.3
358.15 K	5.49
368.15 K	5.68

C=CCCC [1-pentene] + C[n+]1ccn(CCCO)c1.N#CN=C=[N-]
[2]
Settings	activity coefficient
298.15 K	74
308.15 K	68.1
318.15 K	63.5
328.15 K	59.3

C1=CCCCC1 [cyclohexene] + C[n+]1ccn(CCCO)c1.N#CN=C=[N-]
[2]
Settings	activity coefficient
298.15 K	40.7
308.15 K	38.2
318.15 K	36.1
328.15 K	34.5
338.15 K	32.7
348.15 K	31.4
358.15 K	30

C1CCCCCC1 [cycloheptane] + C[n+]1ccn(CCCO)c1.N#CN=C=[N-]
[2]
Settings	activity coefficient
298.15 K	152
308.15 K	139
318.15 K	128
328.15 K	119
338.15 K	111
348.15 K	104
358.15 K	97.8

CC1CCCCC1 [methylcyclohexane] + C[N+]1(CCCO)CCOCC1.N#C[N-]C#N
[2]
Settings	activity coefficient
298.15 K	865
308.15 K	654
318.15 K	508
328.15 K	404
338.15 K	321

C=CCCCCC [1-heptene] + C[n+]1ccn(CCCO)c1.N#CN=C=[N-]
[2]
Settings	activity coefficient
298.15 K	208
308.15 K	194
318.15 K	176
328.15 K	166
338.15 K	156
348.15 K	146
358.15 K	139
